Each structure is given as a SMILES string. Where a name gives a salt, the structure may show the parent alone.

For this experiment, the target named is T1, SGK1 (Homo sapiens, UniProt O00141).
T1 sequence (O00141 1-431): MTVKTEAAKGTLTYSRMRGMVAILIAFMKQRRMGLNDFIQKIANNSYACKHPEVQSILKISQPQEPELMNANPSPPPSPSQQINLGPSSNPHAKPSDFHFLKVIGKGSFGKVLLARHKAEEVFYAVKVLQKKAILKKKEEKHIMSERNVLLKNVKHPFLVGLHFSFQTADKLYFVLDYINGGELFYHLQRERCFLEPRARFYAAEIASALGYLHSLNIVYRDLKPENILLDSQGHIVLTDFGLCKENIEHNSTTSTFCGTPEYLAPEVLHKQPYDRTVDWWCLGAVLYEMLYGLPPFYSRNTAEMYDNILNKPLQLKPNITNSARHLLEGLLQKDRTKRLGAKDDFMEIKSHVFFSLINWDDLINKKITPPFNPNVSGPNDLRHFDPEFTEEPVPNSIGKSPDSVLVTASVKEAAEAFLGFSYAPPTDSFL
Kind of experiment: SGK1 inhibition Assay B (Echo mass spectrometry of phosphorylated peptide product). The format is biochemical. As to conditions: 60 min at room temperature.
By IC50 is commonly meant the midpoint of a concentration-inhibition curve. Molecule `COC(=O)N1CC=C(c2cc(N3CCC[C@@H](NC(=O)c4ccnc(N5CCN(C)CC5)n4)C3)c3c(N)ncnn23)C1` [Example 859, methyl (R)-3-(4-amino-5-(3-(2-(4-methylpiperazin-1-yl)pyrimidine-4-carboxamido)piperidin-1-yl)pyrrolo[2,1-f][1,2,4]triazin-7-yl)-2,5-dihydro-1H-pyrrole-1-carboxylate] returned an IC50 of 5 nM. Under `CN1CCN(c2cccc(C(=O)N[C@@H]3CCCN(c4cc(-c5ccc(-n6cccn6)cc5)n5ncnc(N)c45)C3)n2)CC1` [Example 808, (R)-N-(1-(7-(4-(1H-pyrazol-1-yl)phenyl)-4-aminopyrrolo[2,1-f][1,2,4]triazin-5-yl)piperidin-3-yl)-6-(4-methylpiperazin-1-yl)picolinamide] stands 34 nM; under `Cc1nc(OC2CCCC(NC(C)C)CCC2)c(C(=O)N[C@@H]2CCCN(c3cc(-c4ccc(C(N)=O)c(F)c4)n4ncnc(N)c34)C2)s1` (stereo partly drawn) [Example 942, (R)—N-(1-(4-Amino-7-(4-carbamoyl-3-fluorophenyl)pyrrolo[2,1-f][1,2,4]triazin-5-yl)piperidin-3-yl)-4-((5-(isopropylamino)cyclooctyl)oxy)-2-methylthiazole-5-carboxamide], 4 nM; under `Nc1ncnn2c(-c3ccc(-n4cnnn4)c(F)c3)cc(N3CCC[C@@H](NC(=O)c4sc(Cl)cc4OC4CC5CC4CN5C4COC4)C3)c12` (stereo partly drawn) [Example 994, N—((R)-1-(4-amino-7-(3-fluoro-4-(1H-tetrazol-1-yl)phenyl)pyrrolo[2,1-f][1,2,4]triazin-5-yl)piperidin-3-yl)-5-chloro-3-((2-(oxetan-3-yl)-2-azabicyclo[2.2.1]heptan-5-yl)oxy)thiophene-2-carboxamide], 0.6 nM.

On to `CC1=C(c2cc(N3CCC[C@@H](NC(=O)c4sc(C)nc4OC4CCC(N(C)C)CC4)C3)c3c(N)ncnn23)COC1=O` (stereo partly drawn) [Example 1017, N—((R)-1-(4-amino-7-(4-methyl-5-oxo-2,5-dihydrofuran-3-yl)pyrrolo[2,1-f][1,2,4]triazin-5-yl)piperidin-3-yl)-4-(((1S,4S)-4-(dimethylamino)cyclohexyl)oxy)-2-(methyl-d3)thiazole-5-carboxamide], for which the IC50 was 1.6 nM. The result for `Cc1nc(OC2CCC(N3CC(O)C3)CC2)c(C(=O)N[C@@H]2CCCN(c3cc(-c4ccc(C(N)=O)c(F)c4)n4ncnc(N)c34)C2)s1` (stereo partly drawn) [Example 1039, (R)—N-(1-(4-amino-7-(4-carbamoyl-3-fluorophenyl)pyrrolo[2,1-f][1,2,4]triazin-5-yl)piperidin-3-yl)-4-((4-(3-hydroxyazetidin-1-yl)cyclohexyl)oxy)-2-methylthiazole-5-carboxamide] reads 0.9 nM. The result for `CCOC1=C(C(=O)N[C@@H]2CCCN(c3cc(C4=CCN(C(C)=O)C4)n4ncnc(N)c34)C2)CN(c2ccccc2)C1=O` [Example 758, (R)-N-(1-(7-(1-acetyl-2,5-dihydro-1H-pyrrol-3-yl)-4-aminopyrrolo[2,1-f][1,2,4]triazin-5-yl)piperidin-3-yl)-4-ethoxy-5-oxo-1-phenyl-2,5-dihydro-1H-pyrrole-3-carboxamide, TFA salt] reads 143 nM; that for `CC(C)N1CC2(CN(c3cccc(C(=O)N[C@@H]4CCCN(c5cc(-c6ccc(S(C)(=O)=O)nc6)n6ncnc(N)c56)C4)n3)C2)C1` [Example 834, (R)-N-(1-(4-amino-7-(6-(methylsulfonyl)pyridin-3-yl)pyrrolo[2,1-f][1,2,4]triazin-5-yl)piperidin-3-yl)-6-(6-isopropyl-2,6-diazaspiro[3.3]heptan-2-yl)picolinamide], 20 nM; that for `N#Cc1ccc(C(=O)N[C@@H]2CCCN(c3cc(-c4cnc(-n5cnnn5)c(F)c4)n4ncnc(N)c34)C2)s1` [Example 860, (R)-N-(1-(4-amino-7-(5-fluoro-6-(1H-tetrazol-1-yl)pyridin-3-yl)pyrrolo[2,1-f][1,2,4]triazin-5-yl)piperidin-3-yl)-5-cyanothiophene-2-carboxamide], 3 nM.

Molecule `CC(C)S(=O)(=O)c1ccc(-c2cc(N3CCC[C@@H](NC(=O)c4sc(Cl)cc4O[C@@H]4C[C@H]5CC[C@@H](C4)N5C)C3)c3c(N)ncnn23)cn1` [Example 969, N-[(3R)-1-{4-amino-7-[6-(propane-2-sulfonyl)pyridin-3-yl]pyrrolo[2,1-f][1,2,4]triazin-5-yl}piperidin-3-yl]-5-chloro-3-{[(R,3R,5S)-8-methyl-8-azabicyclo[3.2.1]octan-3-yl]oxy}thiophene-2-carboxamide] showed an IC50 of 4 nM. `CC[C@H](CO)NC1CCC(Oc2nc(C)sc2C(=O)N[C@@H]2CCCN(c3cc(-c4csc(C(=O)NC)n4)n4ncnc(N)c34)C2)CC1` (stereo partly drawn) [Example 1053, 4-(4-amino-5-((R)-3-(4-((4-(((R)-1-hydroxybutan-2-yl)amino)cyclohexyl)oxy)-2-methylthiazole-5-carboxamido)piperidin-1-yl)pyrrolo[2,1-f][1,2,4]triazin-7-yl)-N-methylthiazole-2-carboxamide]: the IC50 was 0.8 nM.

`Cc1nc(O[C@@H]2C[C@H]3CC[C@@H](C2)N3C2CC(O)C2)c(C(=O)N[C@@H]2CCCN(c3cc(-c4ccc(-n5cnnn5)c(F)c4)n4ncnc(N)c34)C2)s1` (stereo partly drawn) [Example 929, N—((R)-1-(4-amino-7-(3-fluoro-4-(1H-tetrazol-1-yl)phenyl)pyrrolo[2,1-f][11,2,4]triazin-5-yl)piperidin-3-yl)-4-(((1R,3s,5S)-8-(3-hydroxycyclobutyl)-8-azabicyclo[3.2.1]octan-3-yl)oxy)-2-methylthiazole-5-carboxamide TFA salt] yielded an IC50 of 1 nM. The result for `[2H]C([2H])([2H])N(C1CCC(Oc2nc(C)sc2C(=O)N[C@@H]2CCCN(c3cc(-c4ccnc(OC)n4)n4ncnc(N)c34)C2)CC1)C([2H])([2H])[2H]` (stereo partly drawn) [Example 1032, (R)—N-(1-(4-amino-7-(2-methoxypyrimidin-4-yl)pyrrolo[2,1-f][1,2,4]triazin-5-yl)piperidin-3-yl)-4-((4-(bis(methyl-d3)amino)cyclohexyl)oxy)-2-methylthiazole-5-carboxamide] reads 1.2 nM.

Molecule `CN1[C@@H]2CC[C@H]1C[C@H](Oc1cc(Cl)sc1C(=O)N[C@@H]1CCCN(c3cc(C4=CCOC4)n4ncnc(N)c34)C1)C2` [Example 926, N—((R)-1-(4-amino-7-(2,5-dihydrofuran-3-yl)pyrrolo[2,1-f][1,2,4]triazin-5-yl)piperidin-3-yl)-5-chloro-3-(((1R,3s,5S)-8-methyl-8-azabicyclo[3.2.1]octan-3-yl)oxy)thiophene-2-carboxamide, TFA salt] had an IC50 of 0.8 nM. Under `CC(C)N1CC2(CN(c3cccc(C(=O)N[C@@H]4CCCN(c5cc(-c6ccc(-n7cnnn7)c(F)c6F)n6ncnc(N)c56)C4)n3)C2)C1` [Example 823, (R)-N-(1-(4-amino-7-(2,3-difluoro-4-(1H-tetrazol-1-yl)phenyl)pyrrolo[2,1-f][1,2,4]triazin-5-yl)piperidin-3-yl)-6-(6-isopropyl-2,6-diazaspiro[3.3]heptan-2-yl)picolinamide] stands 18 nM; under `CNC(=O)c1ccc(-c2cc(N3CCC[C@@H](NC(=O)c4sc(Cl)cc4OCCN(C)C)C3)c3c(N)ncnn23)cn1` [Example 835, (R)-5-(4-amino-5-(3-(5-chloro-3-(2-(dimethylamino)ethoxy)thiophene-2-carboxamido)piperidin-1-yl)pyrrolo[2,1-f][1,2,4]triazin-7-yl)-N-methylpicolinamide], 13 nM; under `CCOC1=C(C(=O)N[C@@H]2CCCN(c3cc(C4=CCN(C(C)=O)C4)n4ncnc(N)c34)C2)CN(CC(F)(F)F)C1=O` [Example 759, (R)-N-(1-(7-(1-acetyl-2,5-dihydro-1H-pyrrol-3-yl)-4-aminopyrrolo[2,1-f][1,2,4]triazin-5-yl)piperidin-3-yl)-4-ethoxy-5-oxo-1-(2,2,2-trifluoroethyl)-2,5-dihydro-1H-pyrrole-3-carboxamide], 887 nM.

For the molecule `Cc1nc(OC2CCC(NC3CC3)CC2)c(C(=O)N[C@@H]2CCCN(c3cc(-c4ccc(C(N)=O)c(F)c4)n4ncnc(N)c34)C2)s1` (single isomer, unassigned) [Example 941], the midpoint of inhibition, the IC50, lay at 1 nM. In the case of `COc1nc(-c2cc(N3CCC[C@@H](NC(=O)c4sc(C)nc4O[C@H]4CC[C@@H](N(C)C)CC4)C3)c3c(N)ncnn23)ccc1C(N)=O` [Example 1057, N—((R)-1-(4-amino-7-(5-carbamoyl-6-methoxypyridin-2-yl)pyrrolo[2,1-f][1,2,4]triazin-5-yl)piperidin-3-yl)-4-(((1S,4S)-4 (dimethylamino)cyclohexyl)oxy)-2-methylthiazole5-carboxamide], the concentration for half-maximal inhibition (IC50) worked out at 1.7 nM.

`Cc1nc(O[C@@H]2C[C@H]3CC[C@@H](C2)N3C(C)C)c(C(=O)N[C@@H]2CCCN(c3cc(-c4ccc(C(N)=O)c(OCC(F)F)n4)n4ncnc(N)c34)C2)s1` [Example 956, N—((R)-1-(4-Amino-7-(5-carbamoyl-6-(2,2-difluoroethoxy)pyridin-2-yl)pyrrolo[2,1-f][1,2,4]triazin-5-yl)piperidin-3-yl)-4-(((1R,3s,5S)-8-isopropyl-8-azabicyclo[3.2.1]octan-3-yl)oxy)-2-methylthiazole-5-carboxamide]: the IC50 amounted to 2 nM. As to `Cc1nc(O[C@@H]2C[C@H]3CC[C@@H](C2)N3)c(C(=O)N[C@@H]2CCCN(c3cc(-c4ccc5c(c4)OCCNC5=O)n4ncnc(N)c34)C2)s1` [Example 966, 4-(((1R,3s,5S)-8-azabicyclo [3.2.1]octan-3-yl)oxy)-N—((R)-1-(4-amino-7-(5-oxo-2,3,4,5-tetrahydrobenzo[f][1,4]oxazepin-8-yl)pyrrolo[2,1-f][1,2,4]triazin-5-yl)piperidin-3-yl)-2-methylthiazole-5-carboxamide], the IC50 worked out at 8 nM.

The record behind these values is US20260250290A1 (BRISTOL-MYERS SQUIBB COMPANY, priority 2023, published 2026).
